In patent publication US12121510B2 (Cedars-Sinai Medical Center, priority 2016, dated 2024):
Read-outs that look alike come from different tables or passages of the source.

Tests used:
[1] = tested on: 22Rv1; assay: Cancer cell growth IC50 (crystal violet); type: cell-based, human; conditions: Example 15
Description: (§1) Exemplary Embodiments are generally performed as follows, unless otherwise noted. Simvastatin is purchased from Ark Pharm, Inc. (Arlington Heights, IL). Cisplatin (CIS) is purchased from MedKoo Biosciences, Inc. (Chapel Hill, NC). Dihydroartemisinin is purchased from TCI America (Portland, OR). All other chemicals and reagents are purchased from standard sources such as Sigma-Aldrich and/or VWR and are of highest quality available. Puromycin dihydrochloride was purchased from Alfa Aesar (Tewksbury, MA). Deionized water ([…]) used for making solutions is obtained from Milli-Q Direct Ultrapure Water System from Millipore (Billerica, MA, USA). All intermediates are characterized by 1H NMR and mass analysis and the purity of compounds are analyzed by HPLC. 1H NMR data are collected on Bruker 400 MHz spectrometers using standard parameters; chemical shifts are reported in ppm (δ) in reference to residual non-deuterated solvent. ESI mass spectroscopy analysis is performed using a Thermo Fisher LTQ Orbitrap Elite system. IC50 is the half maximal inhibitory concentration and determined is determined by crystal violet assay unless otherwise noted.
(§2) The crystal violet assay is performed as follows, unless otherwise noted. Cell lines are supplemented with RPMI 1640 medium, 10% fetal bovine serum, 1% PenStrep, and placed in a humidified atmosphere containing 5% CO2 at 37° C. 5,000 cells/well renal cancer cells and 10,000 cells/well lymphoma cells are seeded in 96 well plates in 100 microliter medium/per well for 24 h. […] Renal cancer cells are fixed with 3.7% paraformaldehyde for 15 minutes and are stained with Crystal violet solution (0.5% in 25% methanol) for 30 minutes. After rinsing with water cell layers are dried and decolorized with Sorenson citrate with shaking for 20 minutes. Light absorption of the extracted supernatant is read at 595 nm. Lymphoma cell growth was evaluated using MTT and cells are incubated for 4 hours. 100 microliters of isopropanol is added, and the extracted supernatant fraction is read at absorption maximum of 595 nm. […]

[2] = tested on: human lymphoma cell lines (Daudi, Raji, Namalwa, Ramos and CA-46); assay: Growth IC50 in lymphoma cell line panel; type: cell-based; conditions: all lymphoma cell lines; 72 hours; read-out: IC50 across lymphoma cell lines
Method: (§3) The crystal violet assay is performed as follows, unless otherwise noted. Cell lines are supplemented with RPMI 1640 medium, 10% fetal bovine serum, 1% PenStrep, and placed in a humidified atmosphere containing 5% CO2 at 37° C. 5,000 cells/well renal cancer cells and 10,000 cells/well lymphoma cells are seeded in 96 well plates in 100 microliter medium/per well for 24 h. […] Renal cancer cells are fixed with 3.7% paraformaldehyde for 15 minutes and are stained with Crystal violet solution (0.5% in 25% methanol) for 30 minutes. After rinsing with water cell layers are dried and decolorized with Sorenson citrate with shaking for 20 minutes. Light absorption of the extracted supernatant is read at 595 nm. Lymphoma cell growth was evaluated using MTT and cells are incubated for 4 hours. 100 microliters of isopropanol is added, and the extracted supernatant fraction is read at absorption maximum of 595 nm.

[3] = tested on: A549/DDP (Cisplatin Resistant); assay: Cell proliferation IC50, Crystal Violet assay; type: cell-based, human; conditions: 72 h
[4] = tested on: CA-46; assay: Lymphoma cell growth IC50 (MTT); type: cell-based, human
Description: as §1, §3
(§4) Standard cell culture conditions typically are RPMI 1640 medium, 10% fetal bovine serum, 1% PenStrep, and are performed in a humidified atmosphere containing 5% CO2 at 37° C. Generally, 5,000 cells/well-10,000 cells/well are seeded in 96 well plates in 100 microliter medium/per well for 24 h, or as described in Example 16, unless otherwise noted. Certain cells require specialized media, growth factors, antibiotics, or culture condition adjustments, as will be apparent to a person of ordinary skill in the art.
(§5) Cell lines are cultured as follows. […] 5,000 cells/well renal cancer cells and 10,000 cells/well lymphoma cells are seeded in 96 well plates in 100 microliter medium/per well for 24 h. […] Renal cancer cells are fixed with 3.7% paraformaldehyde for 15 minutes and are stained with Crystal violet solution (0.5% in 25% methanol) for 30 minutes. After rinsing with water cell layers are dried and decolorized with Sorenson citrate with shaking for 20 minutes. Light absorption of the extracted supernatant is read at 595 nm. Lymphoma cell growth is evaluated using MTT and cells are incubated for 4 hours. 100 microliters of isopropanol is added, and the extracted supernatant fraction is read at absorption maximum of 595 nm.

[5] = tested on: Ramos; assay: Lymphoma cell growth IC50 (MTT); type: cell-based, human
Description: as §1, §3, §4, §5

[6] = tested on: Raji; assay: Lymphoma cell growth IC50 (MTT); type: cell-based, human
Description: as §1, §3, §4, §5

[7] = tested on: MIAPaCa II; assay: Cancer cell growth IC50 / sensitization (crystal violet); type: cell-based; conditions: Example 15
Description: as §1, §2

[8] = tested on: A549; assay: Cell proliferation IC50, Crystal Violet assay; type: cell-based, human; conditions: 72 h
[9] = tested on: OV90; assay: Ovarian cancer cell growth IC50 (crystal violet); type: cell-based, human
Description: as §1, §4
(§6) OV90 and OVCA433 are grown in vitro according to their standard culturing conditions, and an assay such as the crystal violet assay is performed.

[10] = tested on: OVCA 433; assay: Ovarian cancer cell growth IC50 (crystal violet); type: cell-based, human
Description: as §1, §4, §6

[11] = tested on: OV90 and OVCA 433; assay: Growth IC50 in ovarian cancer cell strains; type: cell-based, human; conditions: 72 h; read-out: IC50 across ovarian cancer cell strains OV90 and OVCA 433
Method: as §6

[12] = tested on: U87; assay: Cancer cell growth IC50 (crystal violet); type: cell-based; conditions: Example 15
Description: as §1, §3, §4

[13] = tested on: ARCaP-M; assay: Cancer cell growth IC50 (crystal violet); type: cell-based; conditions: Example 15
Description: as §1, §3, §4

[14] = tested on: H358; assay: Cancer cell growth IC50 (crystal violet); type: cell-based; conditions: Example 15
Description: as §1, §3, §4

[15] = tested on: ARCaP-E; assay: Cancer cell growth IC50 (crystal violet); type: cell-based; conditions: Example 15
Description: as §1, §3, §4

[16] = tested on: CAOV-3; assay: Cancer cell growth IC50 (crystal violet); type: cell-based; conditions: Example 15
Description: as §1, §3, §4

[17] = tested on: PC3M; assay: Cancer cell growth IC50 (crystal violet); type: cell-based; conditions: Example 15
Description: as §1, §3, §4

[18] = tested on: PC3; assay: Cancer cell growth IC50 (crystal violet); type: cell-based; conditions: Example 15
Description: as §1, §3, §4

[19] = tested on: HepG2; assay: Cancer cell growth IC50 (crystal violet); type: cell-based; conditions: Example 15
Description: as §1, §3, §4

[20] = tested on: FUOV-1; assay: Cancer cell growth IC50 (crystal violet); type: cell-based; conditions: Example 15
Description: as §1, §3, §4

[21] = tested on: LNCaP; assay: Cancer cell growth IC50 (crystal violet); type: cell-based; conditions: Example 15
Description: as §1, §3, §4

[22] = tested on: C4-2B; assay: Cancer cell growth IC50 (crystal violet); type: cell-based; conditions: Example 15
Description: as §1, §3, §4

[23] = tested on: MCF-7; assay: Cancer cell growth IC50 (crystal violet); type: cell-based; conditions: Example 15
Description: as §1, §3, §4

[24] = tested on: C4-2; assay: Cancer cell growth IC50 (crystal violet); type: cell-based; conditions: Example 15; C4-2
Description: as §1, §3, §4

[25] = 72 hours, read-out: Half maximal inhibitory concentration (IC50)

N.N.[Cl][Pt][Cl] [CIS, cis-diamminedichloridoplatinum (II)]
IC50 [1]: > 64 µM
IC50 [2]: > 64 µM
IC50 ([3]; A549/DDP (Cisplatin Resistant), single agent, mean ± SEM, read-out: IC50): 90 ± 1 µM
IC50 ([3]; read-out: IC50 of CIS, Mean, A549/DDP, CIS alone): 87.6 µM
IC50 ([4]; CA-46, 72 hours, read-out: Half maximal inhibitory concentration (IC50)): > 64 µM
IC50 ([4]; Example 15, CA46, read-out: IC50): > 64 µM
IC50 [5, 25]: > 64 µM
IC50 ([5]; Example 15, read-out: IC50): > 64 µM
IC50 [6, 25]: > 64 µM
IC50 ([6]; Example 15, read-out: IC50): > 64 µM
IC50 [7]: > 64 µM
IC50 ([8]; A549 parental, single agent, mean ± SEM, read-out: IC50): 26 ± 1.2 µM
IC50 ([8]; read-out: IC50 of CIS, Mean, A549, CIS alone): 26 µM
IC50 ([9]; 72 h): > 64 µM
IC50 ([9]; Example 15): > 64 µM
IC50 ([10]; Example 15, OV433): > 64 µM
IC50 ([10]; OVCA 433, 72 h): > 64 µM
IC50 [11]: > 64 µM
IC50 [12]: > 64 µM
IC50 [13]: > 64 µM
IC50 [14]: > 64 µM
IC50 [15]: > 64 µM
IC50 [16]: 13.4 µM
IC50 [17]: > 64 µM
IC50 [18]: 48.7 µM
IC50 [19]: > 64 µM
IC50 [20]: 27.5 µM
IC50 [21]: > 64 µM
IC50 [22]: > 64 µM
IC50 [23]: 39.5 µM
IC50 [24]: > 64 µM
